From the NIST ThermoML archive (doi:10.1016/j.fluid.2010.03.010)
Numbers after ± are expanded uncertainties.

Conditions: Liquid, Vibrating tube method

CCOS(=O)(=O)[O-].CCn1cc[n+](C)c1 [1-ethyl-3-methylimidazolium ethyl sulfate]
Conditions	mass density [kg/m3]
342.15 K, 101.33 kPa	1208.29 ± 9.7
343.15 K, 100 kPa	1207.4 ± 9.7
343.15 K, 101.33 kPa	1207.63 ± 9.7
343.15 K, 250 kPa	1207.5 ± 9.7
343.15 K, 500 kPa	1207.6 ± 9.7
343.15 K, 1010 kPa	1207.8 ± 9.7
343.15 K, 1990 kPa	1208.3 ± 9.7
343.15 K, 4990 kPa	1209.6 ± 9.7
343.15 K, 10010 kPa	1211.9 ± 9.7
343.15 K, 14990 kPa	1214.1 ± 9.7
343.15 K, 20010 kPa	1216.3 ± 9.7
343.15 K, 24990 kPa	1218.3 ± 9.8
343.15 K, 30000 kPa	1220.4 ± 9.8
343.15 K, 35010 kPa	1222.4 ± 9.8
343.15 K, 40000 kPa	1224.5 ± 9.8
343.15 K, 45000 kPa	1226.4 ± 9.8
343.15 K, 50000 kPa	1228.4 ± 9.9
343.15 K, 54990 kPa	1230.3 ± 9.9
343.15 K, 60000 kPa	1232.2 ± 9.9
344.15 K, 101.33 kPa	1206.97 ± 9.7
345.15 K, 101.33 kPa	1206.32 ± 9.7
346.15 K, 101.33 kPa	1205.66 ± 9.7
347.15 K, 101.33 kPa	1205.01 ± 9.7
348.15 K, 101.33 kPa	1204.36 ± 9.6
349.15 K, 101.33 kPa	1203.7 ± 9.6
350.15 K, 101.33 kPa	1203.05 ± 9.6
351.15 K, 101.33 kPa	1202.4 ± 9.6
352.15 K, 101.33 kPa	1201.75 ± 9.6
353.15 K, 100 kPa	1200.9 ± 9.6
353.15 K, 101.33 kPa	1201.09 ± 9.6
353.15 K, 250 kPa	1200.9 ± 9.6
353.15 K, 500 kPa	1201 ± 9.6
353.15 K, 1010 kPa	1201.3 ± 9.6
353.15 K, 2000 kPa	1201.8 ± 9.6
353.15 K, 4990 kPa	1203.1 ± 9.6
353.15 K, 10010 kPa	1205.5 ± 9.7
353.15 K, 15000 kPa	1207.6 ± 9.7
353.15 K, 20000 kPa	1209.9 ± 9.7
353.15 K, 24990 kPa	1212 ± 9.7
353.15 K, 30010 kPa	1214.2 ± 9.7
353.15 K, 34990 kPa	1216.2 ± 9.8
353.15 K, 40000 kPa	1218.3 ± 9.8
353.15 K, 45000 kPa	1220.2 ± 9.8
353.15 K, 50000 kPa	1222.3 ± 9.8
353.15 K, 54990 kPa	1224.2 ± 9.8
353.15 K, 60000 kPa	1226.1 ± 9.8
354.15 K, 101.33 kPa	1200.44 ± 9.6
355.15 K, 101.33 kPa	1199.79 ± 9.6
356.15 K, 101.33 kPa	1199.14 ± 9.6
357.15 K, 101.33 kPa	1198.49 ± 9.6
358.15 K, 101.33 kPa	1197.84 ± 9.6
359.15 K, 101.33 kPa	1197.2 ± 9.6
360.15 K, 101.33 kPa	1196.55 ± 9.6
361.15 K, 101.33 kPa	1195.9 ± 9.6
362.15 K, 101.33 kPa	1195.26 ± 9.6
363.15 K, 100 kPa	1194.3 ± 9.6
363.15 K, 101.33 kPa	1194.61 ± 9.6
363.15 K, 250 kPa	1194.4 ± 9.6
363.15 K, 500 kPa	1194.5 ± 9.6
363.15 K, 1000 kPa	1194.7 ± 9.6
363.15 K, 2000 kPa	1195.2 ± 9.6
363.15 K, 4990 kPa	1196.6 ± 9.6
363.15 K, 10010 kPa	1199 ± 9.6
363.15 K, 14990 kPa	1201.3 ± 9.6
363.15 K, 19990 kPa	1203.6 ± 9.6
363.15 K, 25000 kPa	1205.7 ± 9.7
363.15 K, 30000 kPa	1207.9 ± 9.7
363.15 K, 34990 kPa	1210 ± 9.7
363.15 K, 40000 kPa	1212.2 ± 9.7
363.15 K, 45000 kPa	1214.2 ± 9.7
363.15 K, 50000 kPa	1216.2 ± 9.8
363.15 K, 55000 kPa	1218.2 ± 9.8
363.15 K, 60000 kPa	1220.2 ± 9.8
373.15 K, 100 kPa	1187.8 ± 9.5
373.15 K, 250 kPa	1187.9 ± 9.5
373.15 K, 500 kPa	1188 ± 9.5
373.15 K, 1010 kPa	1188.2 ± 9.5
373.15 K, 2000 kPa	1188.7 ± 9.5
373.15 K, 4990 kPa	1190.2 ± 9.5
373.15 K, 10010 kPa	1192.6 ± 9.6
373.15 K, 14990 kPa	1194.9 ± 9.6
373.15 K, 20010 kPa	1197.3 ± 9.6
373.15 K, 25000 kPa	1199.5 ± 9.6
373.15 K, 30010 kPa	1201.7 ± 9.6
373.15 K, 34990 kPa	1203.9 ± 9.7
373.15 K, 40000 kPa	1206.1 ± 9.7
373.15 K, 45000 kPa	1208.1 ± 9.7
373.15 K, 50000 kPa	1210.2 ± 9.7
373.15 K, 54990 kPa	1212.3 ± 9.7
373.15 K, 60000 kPa	1214.3 ± 9.8
393.15 K, 100 kPa	1174.8 ± 9.4
393.15 K, 250 kPa	1174.9 ± 9.4
393.15 K, 500 kPa	1175 ± 9.4
393.15 K, 1010 kPa	1175.3 ± 9.4
393.15 K, 2000 kPa	1175.8 ± 9.4
393.15 K, 4990 kPa	1177.3 ± 9.4
393.15 K, 10000 kPa	1179.9 ± 9.4
393.15 K, 15000 kPa	1182.3 ± 9.5
393.15 K, 20010 kPa	1184.8 ± 9.5
393.15 K, 24990 kPa	1187.1 ± 9.5
393.15 K, 30010 kPa	1189.5 ± 9.5
393.15 K, 34990 kPa	1191.7 ± 9.6
393.15 K, 40000 kPa	1194 ± 9.6
393.15 K, 45010 kPa	1196.2 ± 9.6
393.15 K, 50000 kPa	1198.4 ± 9.6
393.15 K, 55000 kPa	1200.5 ± 9.6
393.15 K, 60000 kPa	1202.6 ± 9.7
413.15 K, 100 kPa	1161.7 ± 9.3
413.15 K, 250 kPa	1161.8 ± 9.3
413.15 K, 500 kPa	1162 ± 9.3
413.15 K, 1010 kPa	1162.2 ± 9.3
413.15 K, 2000 kPa	1162.8 ± 9.3
413.15 K, 4990 kPa	1164.4 ± 9.3
413.15 K, 10000 kPa	1167.2 ± 9.3
413.15 K, 14990 kPa	1169.7 ± 9.4
413.15 K, 20010 kPa	1172.4 ± 9.4
413.15 K, 24990 kPa	1174.8 ± 9.4
413.15 K, 30000 kPa	1177.4 ± 9.4
413.15 K, 34990 kPa	1179.7 ± 9.5
413.15 K, 40000 kPa	1182.1 ± 9.5
413.15 K, 45000 kPa	1184.4 ± 9.5
413.15 K, 50000 kPa	1186.7 ± 9.5
413.15 K, 54990 kPa	1188.9 ± 9.5
413.15 K, 60000 kPa	1191.1 ± 9.6
433.15 K, 100 kPa	1148.6 ± 9.2
433.15 K, 250 kPa	1148.7 ± 9.2
433.15 K, 500 kPa	1148.8 ± 9.2
433.15 K, 1010 kPa	1149.1 ± 9.2
433.15 K, 2000 kPa	1149.7 ± 9.2
433.15 K, 4990 kPa	1151.4 ± 9.2
433.15 K, 10010 kPa	1154.4 ± 9.2
433.15 K, 14990 kPa	1157.1 ± 9.3
433.15 K, 20010 kPa	1159.9 ± 9.3
433.15 K, 24990 kPa	1162.5 ± 9.3
433.15 K, 30010 kPa	1165.2 ± 9.3
433.15 K, 34990 kPa	1167.6 ± 9.4
433.15 K, 40000 kPa	1170.2 ± 9.4
433.15 K, 45010 kPa	1172.6 ± 9.4
433.15 K, 50000 kPa	1175.1 ± 9.4
433.15 K, 54990 kPa	1177.4 ± 9.4
433.15 K, 60000 kPa	1179.7 ± 9.5
